Reference: ChEMBL document CHEMBL1201862, “PubChem BioAssay data set” (2004)
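Compound exposure: 48 hours, 5 concentrations, 96-well plates. Abbreviation: GI50, concentration required for 50% inhibition of growth.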 Calls of active or inactive are those of the source. No stated cut-off is given here; in the data, active = GI50 up to about 1.1 µM and inactive = higher.

Key:
Experiment in all cases: NCI tumour cell line growth inhibition, 48 h
A549 = test system: A549
BT-549 = test system: BT-549
CAKI-1 = test system: CAKI-1
CCRF-CEM = test system: CCRF-CEM
COLO 205 = test system: COLO 205
EKVX = test system: EKVX
HT-29 = test system: HT-29
LOX IMVI = test system: LOX IMVI
MCF7 = test system: MCF7
MDA-MB-231 = test system: MDA-MB-231
MOLT-4 = test system: MOLT-4
OVCAR-4 = test system: OVCAR-4
SF-295 = test system: SF-295
SF-539 = test system: SF-539
SNB-19 = test system: SNB-19
SNB-75 = test system: SNB-75
SW-620 = test system: SW-620
UACC-62 = test system: UACC-62
A498 = test system: A498
HOP-92 = test system: HOP-92

Measured: GI50

O=C(/C=C/c1ccc(F)c(F)c1)OCCc1ccccc1
inactive: A549 > 100 µM | BT-549 > 100 µM | CAKI-1 67.1 µM | CCRF-CEM 29.8 µM | COLO 205 > 100 µM | EKVX > 100 µM | HT-29 34.5 µM | LOX IMVI 89.9 µM | MCF7 81.8 µM | MDA-MB-231 > 100 µM | MOLT-4 18 µM | OVCAR-4 91.8 µM | SF-295 > 100 µM | SF-539 > 100 µM | SNB-19 > 100 µM | SNB-75 84.5 µM | SW-620 > 100 µM | UACC-62 > 100 µM

CCCCN/N=N/c1cn(C2OC(CO)C(O)C2O)c(=O)[nH]c1=O (stereo not drawn)
inactive: A498 > 100 µM | A549 > 100 µM | CAKI-1 > 100 µM | CCRF-CEM > 100 µM | COLO 205 > 100 µM | EKVX > 100 µM | HT-29 > 100 µM | LOX IMVI > 100 µM | MCF7 > 100 µM | MDA-MB-231 > 100 µM | MOLT-4 > 100 µM | OVCAR-4 > 100 µM | SF-295 > 100 µM | SF-539 > 100 µM | SNB-19 > 100 µM | SW-620 > 100 µM | UACC-62 > 100 µM

COc1ccc(C(O)c2nccn2C)c(OC)c1 (stereo not drawn)
inactive: A549 > 100 µM | BT-549 > 100 µM | CAKI-1 > 100 µM | CCRF-CEM > 100 µM | COLO 205 > 100 µM | EKVX > 100 µM | HOP-92 > 100 µM | HT-29 > 100 µM | MCF7 > 100 µM | MOLT-4 > 100 µM | OVCAR-4 > 100 µM | SF-295 > 100 µM | SF-539 > 100 µM | SNB-19 > 100 µM | SNB-75 29.6 µM | SW-620 > 100 µM | UACC-62 > 100 µM

COc1ccc2nc3n(c2c1)C(c1c(F)cccc1Cl)SC3 (stereo not drawn)
inactive: A498 > 100 µM | A549 > 100 µM | BT-549 > 100 µM | CAKI-1 > 100 µM | CCRF-CEM > 100 µM | COLO 205 > 100 µM | EKVX > 100 µM | HOP-92 41.8 µM | LOX IMVI > 100 µM | MCF7 > 100 µM | MOLT-4 > 100 µM | OVCAR-4 > 100 µM | SF-295 > 100 µM | SNB-19 > 100 µM | SNB-75 > 100 µM | SW-620 > 100 µM | UACC-62 > 100 µM

CCOC(=O)c1ccc(/N=c2\oc3ccc(OC)cc3cc2-c2nc3ccccc3[nH]2)cc1
inactive: A549 51.2 µM | BT-549 > 100 µM | CAKI-1 > 100 µM | CCRF-CEM > 100 µM | COLO 205 73.5 µM | EKVX > 100 µM | HOP-92 > 100 µM | HT-29 > 100 µM | LOX IMVI > 100 µM | MCF7 36.5 µM | MDA-MB-231 53.7 µM | MOLT-4 > 100 µM | OVCAR-4 > 100 µM | SF-295 62.8 µM | SF-539 1.99 µM | SNB-19 42.9 µM | SNB-75 14.1 µM | SW-620 8.13 µM | UACC-62 > 100 µM

Cc1[nH]nc(C(=O)N/N=C/c2ccccc2Cl)c1/N=N\N(C)C
inactive: A498 2.19 µM | A549 > 100 µM | BT-549 2.99 µM | CAKI-1 > 32.9 µM | CCRF-CEM 2.59 µM | COLO 205 > 100 µM | EKVX 12.4 µM | HOP-92 > 23.9 µM | HT-29 > 53.3 µM | LOX IMVI > 76.4 µM | MDA-MB-231 > 43.5 µM | MOLT-4 2.2 µM | OVCAR-4 14.9 µM | SF-295 > 54 µM | SF-539 5.56 µM | SNB-19 > 100 µM | SNB-75 > 31 µM | SW-620 > 33 µM | UACC-62 > 100 µM

CC(C)(C)c1cc[n+](C[n+]2ccc(C(C)(C)C)cc2)cc1
inactive: A498 53.6 µM | A549 > 100 µM | CAKI-1 > 100 µM | CCRF-CEM > 100 µM | COLO 205 > 100 µM | EKVX > 100 µM | HOP-92 > 100 µM | HT-29 > 100 µM | MCF7 > 100 µM | MDA-MB-231 > 100 µM | MOLT-4 > 100 µM | OVCAR-4 > 100 µM | SF-295 > 100 µM | SF-539 > 100 µM | SNB-19 > 100 µM | SNB-75 > 100 µM | SW-620 > 100 µM | UACC-62 > 100 µM

CCN(CC)CCN(/C(=N/c1ccccc1)N1CCCCC1)c1ccccc1
inactive: A549 14.8 µM | BT-549 13.7 µM | CAKI-1 27.8 µM | CCRF-CEM 4.49 µM | COLO 205 2.3 µM | EKVX 14.1 µM | HT-29 1.71 µM | LOX IMVI 3.14 µM | MCF7 5.53 µM | MDA-MB-231 3.89 µM | MOLT-4 2.99 µM | OVCAR-4 3.87 µM | SF-295 3.62 µM | SF-539 18.7 µM | SNB-19 17.8 µM | SNB-75 > 10 µM | SW-620 6.05 µM | UACC-62 6.12 µM

Nc1ccc(S2(c3ccc(N)cc3)C=C(c3ccccc3)C(c3ccccc3)=C2)cc1
inactive: A498 > 29.4 µM | A549 > 29.4 µM | CCRF-CEM > 100 µM | COLO 205 > 45 µM | EKVX > 100 µM | HOP-92 18.1 µM | HT-29 > 44.7 µM | LOX IMVI > 33.5 µM | MCF7 > 32.1 µM | MDA-MB-231 > 24.2 µM | MOLT-4 > 73.8 µM | OVCAR-4 11 µM | SF-295 16.4 µM | SF-539 > 25.5 µM | SNB-19 > 45 µM | SNB-75 > 100 µM | SW-620 > 57.7 µM | UACC-62 > 35.6 µM

CCCn1c(=O)c2nn3c(=O)n(CCC)c(=O)c3nn2c1=O
inactive: A549 > 100 µM | BT-549 > 100 µM | CAKI-1 > 100 µM | CCRF-CEM > 100 µM | COLO 205 > 100 µM | EKVX > 100 µM | HOP-92 > 100 µM | HT-29 > 100 µM | LOX IMVI > 100 µM | MCF7 > 100 µM | MOLT-4 > 100 µM | OVCAR-4 > 100 µM | SF-295 > 100 µM | SF-539 > 100 µM | SNB-19 > 100 µM | SNB-75 > 100 µM | SW-620 > 100 µM | UACC-62 > 100 µM

O=C(C=P(c1ccccc1)(c1ccccc1)c1ccccc1)c1ccc(-c2ccc(F)cc2F)cc1
inactive: A498 2.64 µM | A549 2.73 µM | CAKI-1 2.12 µM | CCRF-CEM 2.61 µM | COLO 205 1.64 µM | EKVX 3.17 µM | HOP-92 2.19 µM | HT-29 2.18 µM | LOX IMVI 2 µM | MCF7 2.55 µM | MDA-MB-231 2.1 µM | MOLT-4 1.83 µM | OVCAR-4 2.9 µM | SF-295 3.15 µM | SF-539 2.88 µM | SNB-19 4.73 µM | SW-620 3.58 µM | UACC-62 1.85 µM

C/C(=N\c1c2ccccc2nc2ccccc12)N(C)C
inactive: A549 28.2 µM | BT-549 25.8 µM | CAKI-1 24.3 µM | CCRF-CEM 8.87 µM | COLO 205 12.6 µM | EKVX 32.7 µM | HOP-92 10.6 µM | HT-29 9.48 µM | LOX IMVI 11.6 µM | MCF7 25.8 µM | MDA-MB-231 14.6 µM | MOLT-4 12.2 µM | OVCAR-4 19 µM | SF-295 14.8 µM | SNB-19 34 µM | SNB-75 24.1 µM | UACC-62 15.2 µM

CN(C)NC1=NS(=O)(=O)c2cc3c(=O)n(C)[nH]c3cc2S1
inactive: A498 > 10 µM | A549 > 10 µM | BT-549 > 10 µM | CAKI-1 > 10 µM | CCRF-CEM > 10 µM | COLO 205 > 10 µM | EKVX > 10 µM | HOP-92 > 10 µM | HT-29 > 10 µM | LOX IMVI > 10 µM | MCF7 5.05 µM | MOLT-4 > 10 µM | OVCAR-4 > 10 µM | SF-295 > 10 µM | SF-539 > 10 µM | SNB-19 > 10 µM | SNB-75 > 10 µM | SW-620 > 10 µM

COc1ccc(-c2c(-c3ccc(OC)cc3)n3c(=O)n(C)c(=O)n23)cc1
inactive: A498 19.4 µM | A549 53.3 µM | CAKI-1 > 100 µM | CCRF-CEM 59.4 µM | COLO 205 > 100 µM | EKVX 34.9 µM | HOP-92 18.8 µM | LOX IMVI > 100 µM | MCF7 > 100 µM | MDA-MB-231 > 100 µM | MOLT-4 > 100 µM | OVCAR-4 23.3 µM | SF-295 > 100 µM | SF-539 24.6 µM | SNB-19 17.1 µM | SNB-75 > 100 µM | SW-620 > 100 µM | UACC-62 30.5 µM

CC(=O)OCC1OC(OC(C)=O)C(Nc2ncc(-c3ccc(C)cc3)s2)C(OC(C)=O)C1OC(C)=O (stereo not drawn)
inactive: A549 18.6 µM | BT-549 18.6 µM | CAKI-1 16.9 µM | CCRF-CEM 4.4 µM | COLO 205 17.7 µM | EKVX 14.3 µM | HT-29 21.2 µM | LOX IMVI 13.2 µM | MCF7 20.3 µM | MDA-MB-231 19.9 µM | MOLT-4 11 µM | OVCAR-4 16.9 µM | SF-295 22.9 µM | SF-539 20.7 µM | SNB-19 21.4 µM | SNB-75 15.5 µM | SW-620 13.7 µM | UACC-62 14.4 µM
